From paper doi:10.1101/2020.06.11.145995v1 (biorxiv, 2020)
Where two headings read alike, the source gives them in different places. One block for each compound: values may come before it.

Tests used:
Assay in all cases: biochemical
[1] = biological target: ABL2 (Homo sapiens, UniProt P42684)
[2] = biological target: ACVR2B (Homo sapiens, UniProt Q13705)
[3] = biological target: AKT3 (Homo sapiens, UniProt Q9Y243)
[4] = biological target: BIKE (Homo sapiens, UniProt Q9NSY1)
[5] = biological target: BMPR1A (Homo sapiens, UniProt P36894)
[6] = biological target: BMPR1B (Homo sapiens, UniProt O00238)
[7] = biological target: CAMK1G (Homo sapiens, UniProt Q96NX5)
[8] = biological target: CDK11 (Homo sapiens, UniProt Q9BWU1)
[9] = biological target: CDK3 (Homo sapiens, UniProt Q00526)
[10] = biological target: CDK4-cyclinD3 (Homo sapiens, UniProt P11802)
[11] = biological target: CSK (Homo sapiens, UniProt P41240)
[12] = biological target: DCAMKL1 (Homo sapiens, UniProt O15075)
[13] = biological target: DDR1 (Homo sapiens, UniProt Q08345)
[14] = biological target: DRAK2 (Homo sapiens, UniProt O94768)
[15] = biological target: FLT1 (Homo sapiens, UniProt P17948)
[16] = biological target: FYN (Homo sapiens, UniProt P06241)
[17] = biological target: GRK4 (Homo sapiens, UniProt P32298)
[18] = biological target: HIPK1 (Homo sapiens, UniProt Q86Z02)
[19] = biological target: IKK-beta (Homo sapiens, UniProt O14920)
[20] = biological target: IKK-epsilon (Homo sapiens, UniProt Q14164)
[21] = biological target: JNK3 (Homo sapiens, UniProt P53779)
[22] = biological target: KIT(D816H) (Homo sapiens, UniProt P10721, D816H)
[23] = biological target: LKB1 (Homo sapiens, UniProt Q15831)
[24] = biological target: LRRK2 (Homo sapiens, UniProt Q5S007)
[25] = biological target: MAP3K3 (Homo sapiens, UniProt Q99759)
[26] = biological target: MEK1 (Homo sapiens, UniProt Q02750)
[27] = biological target: MLCK (Homo sapiens, UniProt Q32MK0)
[28] = biological target: MST3 (Homo sapiens, UniProt Q9Y6E0)
[29] = biological target: MYLK4 (Homo sapiens, UniProt Q86YV6)
[30] = biological target: MYO3B (Homo sapiens, UniProt Q8WXR4)
[31] = read-out: CPT-1-70-1 (1uM) % control
[32] = read-out: HYJ-2-002-1 (1uM) % control

Sequence of ABL2 (P42684 whole entry): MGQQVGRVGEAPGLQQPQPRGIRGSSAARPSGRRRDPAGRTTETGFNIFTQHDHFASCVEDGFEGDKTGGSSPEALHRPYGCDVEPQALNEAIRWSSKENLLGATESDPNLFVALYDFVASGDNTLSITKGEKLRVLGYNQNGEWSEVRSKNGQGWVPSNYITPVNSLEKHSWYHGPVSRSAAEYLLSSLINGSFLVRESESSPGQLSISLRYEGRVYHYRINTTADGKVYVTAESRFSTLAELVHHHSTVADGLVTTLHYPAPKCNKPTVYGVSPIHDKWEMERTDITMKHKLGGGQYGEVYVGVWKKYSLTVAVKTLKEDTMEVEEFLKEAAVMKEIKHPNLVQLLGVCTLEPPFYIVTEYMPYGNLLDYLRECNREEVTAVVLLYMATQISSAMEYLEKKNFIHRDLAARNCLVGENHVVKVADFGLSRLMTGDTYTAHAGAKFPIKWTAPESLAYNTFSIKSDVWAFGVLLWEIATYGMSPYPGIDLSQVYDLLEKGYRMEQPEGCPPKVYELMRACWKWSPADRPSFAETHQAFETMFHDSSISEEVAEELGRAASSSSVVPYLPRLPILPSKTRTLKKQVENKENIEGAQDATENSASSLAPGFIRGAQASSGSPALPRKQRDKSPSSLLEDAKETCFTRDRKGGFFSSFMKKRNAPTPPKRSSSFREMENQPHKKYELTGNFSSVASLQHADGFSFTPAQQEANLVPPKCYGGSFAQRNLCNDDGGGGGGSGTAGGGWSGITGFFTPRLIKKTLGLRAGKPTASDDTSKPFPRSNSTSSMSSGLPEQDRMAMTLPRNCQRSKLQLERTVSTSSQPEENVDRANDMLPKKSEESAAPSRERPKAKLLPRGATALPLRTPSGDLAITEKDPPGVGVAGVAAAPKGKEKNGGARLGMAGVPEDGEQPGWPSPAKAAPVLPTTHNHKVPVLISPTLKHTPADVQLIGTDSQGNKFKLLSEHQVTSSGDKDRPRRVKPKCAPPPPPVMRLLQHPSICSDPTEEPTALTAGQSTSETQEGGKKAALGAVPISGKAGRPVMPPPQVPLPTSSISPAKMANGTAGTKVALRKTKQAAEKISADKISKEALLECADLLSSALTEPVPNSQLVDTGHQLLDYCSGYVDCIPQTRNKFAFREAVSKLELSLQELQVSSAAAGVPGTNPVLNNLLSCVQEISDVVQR
Sequence of CDK3 (Q00526 whole entry): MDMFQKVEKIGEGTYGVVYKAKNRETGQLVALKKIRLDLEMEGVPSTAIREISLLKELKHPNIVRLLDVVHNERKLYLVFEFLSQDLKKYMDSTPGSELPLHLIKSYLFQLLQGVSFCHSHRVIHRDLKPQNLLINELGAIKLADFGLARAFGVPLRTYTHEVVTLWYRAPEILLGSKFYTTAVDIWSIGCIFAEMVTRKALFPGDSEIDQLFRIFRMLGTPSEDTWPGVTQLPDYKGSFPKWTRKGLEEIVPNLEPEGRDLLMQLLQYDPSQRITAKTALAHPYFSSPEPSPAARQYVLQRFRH
Sequence of FLT1 (P17948 whole entry): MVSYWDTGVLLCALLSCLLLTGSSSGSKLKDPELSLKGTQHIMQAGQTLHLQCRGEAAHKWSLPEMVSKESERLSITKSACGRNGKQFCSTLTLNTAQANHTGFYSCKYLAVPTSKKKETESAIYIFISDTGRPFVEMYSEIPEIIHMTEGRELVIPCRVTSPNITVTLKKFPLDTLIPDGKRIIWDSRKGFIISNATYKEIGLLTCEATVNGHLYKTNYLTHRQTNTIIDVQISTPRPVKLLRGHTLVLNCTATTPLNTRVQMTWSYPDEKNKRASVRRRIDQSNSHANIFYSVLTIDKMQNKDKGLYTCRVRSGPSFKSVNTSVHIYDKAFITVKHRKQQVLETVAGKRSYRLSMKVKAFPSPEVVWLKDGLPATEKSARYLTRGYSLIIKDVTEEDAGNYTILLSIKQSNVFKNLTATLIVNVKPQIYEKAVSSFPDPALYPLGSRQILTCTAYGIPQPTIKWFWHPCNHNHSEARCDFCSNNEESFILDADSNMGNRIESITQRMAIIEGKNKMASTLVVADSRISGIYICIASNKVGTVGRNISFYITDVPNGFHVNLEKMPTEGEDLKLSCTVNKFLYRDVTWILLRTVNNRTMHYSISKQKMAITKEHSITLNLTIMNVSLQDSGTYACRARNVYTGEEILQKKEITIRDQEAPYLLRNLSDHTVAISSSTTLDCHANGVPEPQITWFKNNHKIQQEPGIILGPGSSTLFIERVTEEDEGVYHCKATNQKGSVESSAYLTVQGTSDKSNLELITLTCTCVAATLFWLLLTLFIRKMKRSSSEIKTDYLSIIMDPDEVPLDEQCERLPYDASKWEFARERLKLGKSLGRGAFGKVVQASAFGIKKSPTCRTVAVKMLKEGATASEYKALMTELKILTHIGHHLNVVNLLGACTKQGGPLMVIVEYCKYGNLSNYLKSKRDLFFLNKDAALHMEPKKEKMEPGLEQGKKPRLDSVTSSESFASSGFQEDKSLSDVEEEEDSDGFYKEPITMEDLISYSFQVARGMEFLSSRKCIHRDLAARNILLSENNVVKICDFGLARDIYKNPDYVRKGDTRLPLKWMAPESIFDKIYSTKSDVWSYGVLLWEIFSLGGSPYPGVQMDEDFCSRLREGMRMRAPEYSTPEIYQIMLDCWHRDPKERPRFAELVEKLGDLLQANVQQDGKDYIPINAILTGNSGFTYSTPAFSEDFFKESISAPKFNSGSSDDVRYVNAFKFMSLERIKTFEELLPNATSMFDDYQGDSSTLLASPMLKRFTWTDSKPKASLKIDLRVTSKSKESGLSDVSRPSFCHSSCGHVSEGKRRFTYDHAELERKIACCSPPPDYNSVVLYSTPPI
Sequence of CAMK1G (Q96NX5 whole entry): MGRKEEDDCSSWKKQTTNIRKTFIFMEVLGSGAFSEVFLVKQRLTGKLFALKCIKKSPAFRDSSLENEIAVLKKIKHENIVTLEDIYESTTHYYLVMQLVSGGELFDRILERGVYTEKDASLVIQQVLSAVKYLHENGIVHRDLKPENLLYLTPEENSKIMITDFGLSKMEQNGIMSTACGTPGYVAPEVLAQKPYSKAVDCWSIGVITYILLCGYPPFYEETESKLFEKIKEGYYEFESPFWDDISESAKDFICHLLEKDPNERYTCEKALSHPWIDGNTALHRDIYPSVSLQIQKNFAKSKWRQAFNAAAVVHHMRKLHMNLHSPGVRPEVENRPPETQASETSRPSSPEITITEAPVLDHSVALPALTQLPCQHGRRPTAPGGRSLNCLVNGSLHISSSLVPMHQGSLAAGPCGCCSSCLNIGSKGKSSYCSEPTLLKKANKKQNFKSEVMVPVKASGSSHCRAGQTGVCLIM
Sequence of IKK-epsilon (Q14164 whole entry): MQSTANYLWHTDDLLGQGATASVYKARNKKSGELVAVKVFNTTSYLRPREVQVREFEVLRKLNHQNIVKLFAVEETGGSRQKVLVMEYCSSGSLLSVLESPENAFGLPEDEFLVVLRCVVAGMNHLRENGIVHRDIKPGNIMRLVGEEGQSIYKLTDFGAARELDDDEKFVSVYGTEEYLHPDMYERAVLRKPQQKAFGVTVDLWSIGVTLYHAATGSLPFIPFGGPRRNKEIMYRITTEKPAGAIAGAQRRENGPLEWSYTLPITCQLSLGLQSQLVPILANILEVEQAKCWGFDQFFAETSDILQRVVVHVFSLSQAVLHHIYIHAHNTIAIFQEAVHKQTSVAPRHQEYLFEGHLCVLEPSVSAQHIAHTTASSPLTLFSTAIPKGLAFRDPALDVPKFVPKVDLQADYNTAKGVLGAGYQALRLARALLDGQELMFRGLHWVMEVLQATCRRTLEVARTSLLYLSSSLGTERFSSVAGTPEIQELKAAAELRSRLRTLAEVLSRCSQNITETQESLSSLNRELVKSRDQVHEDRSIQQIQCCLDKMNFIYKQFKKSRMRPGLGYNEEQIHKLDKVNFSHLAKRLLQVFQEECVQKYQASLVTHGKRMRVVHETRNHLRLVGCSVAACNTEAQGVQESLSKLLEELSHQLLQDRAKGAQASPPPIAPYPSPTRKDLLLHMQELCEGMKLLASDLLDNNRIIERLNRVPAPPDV
Sequence of MST3 (Q9Y6E0 whole entry): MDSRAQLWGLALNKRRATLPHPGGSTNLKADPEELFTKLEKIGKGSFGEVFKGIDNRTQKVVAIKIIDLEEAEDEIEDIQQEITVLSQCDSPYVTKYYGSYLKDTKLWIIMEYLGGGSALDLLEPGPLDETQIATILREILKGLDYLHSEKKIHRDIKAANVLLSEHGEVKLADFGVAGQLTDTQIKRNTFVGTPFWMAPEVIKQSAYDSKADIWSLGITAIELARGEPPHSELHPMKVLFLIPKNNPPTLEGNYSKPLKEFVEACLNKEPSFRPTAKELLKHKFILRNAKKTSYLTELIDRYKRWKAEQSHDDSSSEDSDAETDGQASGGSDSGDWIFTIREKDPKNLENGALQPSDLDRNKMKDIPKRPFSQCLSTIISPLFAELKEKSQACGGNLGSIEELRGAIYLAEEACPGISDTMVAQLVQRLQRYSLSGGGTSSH
Sequence of MEK1 (Q02750 whole entry): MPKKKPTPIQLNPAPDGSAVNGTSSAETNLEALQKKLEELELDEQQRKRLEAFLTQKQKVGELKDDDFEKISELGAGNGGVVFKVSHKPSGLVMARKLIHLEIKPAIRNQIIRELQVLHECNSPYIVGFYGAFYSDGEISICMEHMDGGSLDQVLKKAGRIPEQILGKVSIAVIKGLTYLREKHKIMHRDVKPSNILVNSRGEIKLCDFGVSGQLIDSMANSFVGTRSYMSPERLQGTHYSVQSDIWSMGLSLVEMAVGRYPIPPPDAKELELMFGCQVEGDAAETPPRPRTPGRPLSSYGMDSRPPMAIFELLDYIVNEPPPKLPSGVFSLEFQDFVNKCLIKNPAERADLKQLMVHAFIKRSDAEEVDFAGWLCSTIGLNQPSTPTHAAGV

Compound: CN1CCN(c2ccc(Nc3nc(Oc4ccc(NC(=O)CCl)cc4)c4cc[nH]c4n3)cc2)CC1 [CPT1-70-1]
remaining activity at 1 µM [1, 31]: 60%
remaining activity at 1 µM [2, 31]: 100%
remaining activity at 1 µM [3, 31]: 100%
remaining activity at 1 µM [4, 31]: 18%
remaining activity at 1 µM [5, 31]: 100%
remaining activity at 1 µM [6, 31]: 100%
remaining activity at 1 µM [7, 31]: 50%
remaining activity at 1 µM [8, 31]: 100%
remaining activity at 1 µM [9, 31]: 100%
remaining activity at 1 µM [10, 31]: 100%
remaining activity at 1 µM [11, 31]: 93%
remaining activity at 1 µM [12, 31]: 100%
remaining activity at 1 µM [13, 31]: 79%
remaining activity at 1 µM [14, 31]: 90%
remaining activity at 1 µM [15, 31]: 54%
remaining activity at 1 µM [16, 31]: 90%
remaining activity at 1 µM [17, 31]: 100%
remaining activity at 1 µM [18, 31]: 52%
remaining activity at 1 µM [19, 31]: 100%
remaining activity at 1 µM [20, 31]: 100%
remaining activity at 1 µM [21, 31]: 4.6%
remaining activity at 1 µM [22, 31]: 83%
remaining activity at 1 µM [23, 31]: 76%
remaining activity at 1 µM [24, 31]: 7.5%
remaining activity at 1 µM [25, 31]: 16%
remaining activity at 1 µM [26, 31]: 51%
remaining activity at 1 µM [27, 31]: 100%
remaining activity at 1 µM [28, 31]: 93%
remaining activity at 1 µM [29, 31]: 92%
remaining activity at 1 µM [30, 31]: 100%

remaining activity at 1 µM [1, 32]: 0%
remaining activity at 1 µM [2, 32]: 100%
remaining activity at 1 µM [3, 32]: 100%
remaining activity at 1 µM [4, 32]: 96%
remaining activity at 1 µM [5, 32]: 100%
remaining activity at 1 µM [6, 32]: 100%
remaining activity at 1 µM [7, 32]: 94%
remaining activity at 1 µM [8, 32]: 14%
remaining activity at 1 µM [9, 32]: 99%
remaining activity at 1 µM [10, 32]: 100%
remaining activity at 1 µM [11, 32]: 0.8%
remaining activity at 1 µM [12, 32]: 100%
remaining activity at 1 µM [13, 32]: 0%
remaining activity at 1 µM [14, 32]: 57%
remaining activity at 1 µM [15, 32]: 10%
remaining activity at 1 µM [16, 32]: 2.2%
remaining activity at 1 µM [17, 32]: 100%
remaining activity at 1 µM [18, 32]: 51%
remaining activity at 1 µM [19, 32]: 0.3%
remaining activity at 1 µM [20, 32]: 94%
remaining activity at 1 µM [21, 32]: 75%
remaining activity at 1 µM [22, 32]: 43%
remaining activity at 1 µM [23, 32]: 100%
remaining activity at 1 µM [24, 32]: 94%
remaining activity at 1 µM [25, 32]: 1.6%
remaining activity at 1 µM [26, 32]: 100%
remaining activity at 1 µM [27, 32]: 89%
remaining activity at 1 µM [28, 32]: 76%
remaining activity at 1 µM [29, 32]: 100%
remaining activity at 1 µM [30, 32]: 49%
Compound: CCN1CCN(Cc2ccc(NC(=O)c3ccc(C)c(CCc4cnc5[nH]ccc5c4OC)c3)cc2C(F)(F)F)CC1 [HYJ-2-002-1]
